The values below come from patent publication US20230391760A1, “HETEROCYCLIC GLP-1 AGONISTS” (Gasherbrum Bio, Inc., priority 2020, published 2023).

GLP-1 Receptor, sequence (P43220 24-463, species assumed): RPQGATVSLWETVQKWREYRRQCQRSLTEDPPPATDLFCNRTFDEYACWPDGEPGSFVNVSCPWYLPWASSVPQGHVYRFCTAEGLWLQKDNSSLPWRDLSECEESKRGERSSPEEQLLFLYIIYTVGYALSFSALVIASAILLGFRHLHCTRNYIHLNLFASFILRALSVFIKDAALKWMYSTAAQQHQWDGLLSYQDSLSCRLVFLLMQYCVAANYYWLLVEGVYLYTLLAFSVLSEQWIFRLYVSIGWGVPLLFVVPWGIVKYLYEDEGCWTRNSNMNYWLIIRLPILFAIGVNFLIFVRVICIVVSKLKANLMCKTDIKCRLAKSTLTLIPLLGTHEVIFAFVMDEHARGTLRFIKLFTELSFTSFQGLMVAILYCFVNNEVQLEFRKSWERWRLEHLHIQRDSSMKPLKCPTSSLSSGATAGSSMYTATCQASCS

The assay addresses GLP-1 Receptor (Homo sapiens, UniProt P43220). Description: GLP-1R agonist cAMP stimulation assay (HEK293/GLP1R/CRE-LUC cells, cAMP dynamic 2 Kit). The class given is cell-based. As to conditions: HEK293/CRE-Luc cell line stably expressing the GLP-1 Receptor, 30 min at 37° C. In short, it runs like this:
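HEK293 cells stably expressing human GLP-1R with CRE-luciferase, 1000 cells/well in DPBS with 0.5 mM IBMX and 0.1% BSA, treated with compound in 1/2-log serial dilution for 30 min at 37 °C. cAMP then detected by HTRF (cAMP-d2 plus anti-cAMP cryptate), 1 h at room temperature in the dark.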
The molecule `C[C@]1(c2ccc(Cl)cc2F)Oc2cccc(C3CCN(Cc4nc5cc(-c6nnc(C#N)[nH]6)ncc5n4C[C@@H]4CCO4)CC3)c2O1` [Compound 444a, 5-[2-({4-[(2S)-2-(4-chloro-2-fluorophenyl)-2-methyl-2H-1,3-benzodioxol-4-yl]piperidin-1-yl}methyl)-3-{[(2S)-oxetan-2-yl]methyl}-3H-imidazo[4,5-c]pyridin-6-yl]-4H-1,2,4-triazole-3-carbonitrile] showed an EC50 of 0.0037 nM.
`C[C@]1(c2ccc(Cl)cc2F)Oc2cccc(C3CCN(Cc4nc5cc(-c6nnc(C(F)(F)F)[nH]6)nnc5n4C[C@@H]4CCO4)CC3)c2O1` [Compound 359a, 4-[(2S)-2-(4-chloro-2-fluorophenyl)-2-methyl-2H-1,3-benzodioxol-4-yl]-1-[(7-{[(2S)-oxetan-2-yl]methyl}-3-[5-(trifluoromethyl)-4H-1,2,4-triazol-3-yl]-7H-imidazo[4,5-c]pyridazin-6-yl)methyl]piperidine]: the EC50 is 0.014 nM. This EC50 is about 3.8-fold higher than that of the molecule before.
`N#Cc1ccc(COc2cccc(C3CCN(Cc4nc5cc(-c6nnc(C(F)(F)F)[nH]6)ncc5n4C[C@@H]4CCO4)CC3)n2)c(F)c1` [Compound 313a, 3-fluoro-4-{[(6-{1-[(3-{[(2S)-oxetan-2-yl]methyl}-6-[5-(trifluoromethyl)-4H-1,2,4-triazol-3-yl]-3H-imidazo[4,5-c]pyridin-2-yl)methyl]piperidin-4-yl}pyridin-2-yl)oxy]methyl}benzonitrile] gave an EC50 of 0.012 nM. This EC50 and that of the molecule before are within 1.5-fold of each other.
Molecule `Cc1ncc(-c2ccc3c(c2)nc(CN2CCC(c4cccc5c4OC(C)(c4ccc(Cl)cc4F)O5)CC2)n3C[C@@H]2CCO2)cn1` (stereo partly drawn) [Compound 237a, 2-((4-(2-(4-chloro-2-fluorophenyl)-2-methylbenzo[d][1,3]dioxol-4-yl)piperidin-1-yl)methyl)-5-(2-methylpyrimidin-5-yl)-1-(((S)-oxetan-2-yl)methyl)-1H-benzo[d]imidazole] came in with an EC50 of 9.1 nM. This EC50 lies about 760-fold higher than the previous one.
As for `CO[C@H](C)Cn1c(CN2CCC(c3cccc4c3O[C@@](C)(c3ccc(Cl)cc3F)O4)CC2)nc2cc(-c3nnc(C(F)(F)F)[nH]3)cnc21` [Compound 247b, 4-[(2S)-2-(4-chloro-2-fluorophenyl)-2-methyl-2H-1,3-benzodioxol-4-yl]-1-({3-[(2R)-2-methoxypropyl]-6-[5-(trifluoromethyl)-4H-1,2,4-triazol-3-yl]-3H-imidazo[4,5-b]pyridin-2-yl}methyl)piperidine], the figure is 0.093 nM.
Molecule `O=C(Nc1ccc2c(c1)nc(CN1CCC(c3cccc(OCc4ccc(Cl)cc4F)n3)CC1)n2C[C@@H]1CCO1)[C@@H]1COC2(CCC2)C1` [Compound 201a, (7S)—N-{2-[(4-{6-[(4-chloro-2-fluorophenyl)methoxy]pyridin-2-yl}piperidin-1-yl)methyl]-1-{[(2S)-oxetan-2-yl]methyl}-1H-1,3-benzodiazol-5-yl}-5-oxaspiro[3.4]octane-7-carboxamide] showed an EC50 of 3.1 nM.
For `CC1OC2(C(=O)Nc3ccc4c(c3)nc(CN3CCC(c5cccc(OCc6ccc(Cl)cc6F)n5)CC3)n4C[C@@H]3CCO3)CCC1CC2` (stereo partly drawn) [Compound 198a, N-{2-[(4-{6-[(4-chloro-2-fluorophenyl)methoxy]pyridin-2-yl}piperidin-1-yl)methyl]-1-{[(2S)-oxetan-2-yl]methyl}-1H-1,3-benzodiazol-5-yl}-3-methyl-2-oxabicyclo[2.2.2]octane-1-carboxamide], it took 12 nM to reach a half-maximal effect (EC50).
In turn, `O=C(Nc1ccc2c(c1)nc(CN1CCC(c3cccc(OCc4ccc(Cl)cc4F)n3)CC1)n2C[C@@H]1CCO1)C(F)n1cccn1` (stereo partly drawn) [Compound 194a, N-{2-[(4-{6-[(4-chloro-2-fluorophenyl)methoxy]pyridin-2-yl}piperidin-1-yl)methyl]-1-{[(2S)-oxetan-2-yl]methyl}-1H-1,3-benzodiazol-5-yl}-2-fluoro-2-(1H-pyrazol-1-yl)acetamide] returned an EC50 of 0.47 nM.
As for `CC1(c2ccc(Cl)cc2F)Oc2cccc(C3CCN(Cc4nc5cc(-c6nnc(C(F)(F)F)[nH]6)cnc5n4C[C@H]4CCOC4)CC3)c2O1` (stereo partly drawn) [Compound 401a, 4-[2-(4-chloro-2-fluorophenyl)-2-methyl-2H-1,3-benzodioxol-4-yl]-1-[(3-{[(3R)-oxolan-3-yl]methyl}-6-[5-(trifluoromethyl)-4H-1,2,4-triazol-3-yl]-3H-imidazo[4,5-b]pyridin-2-yl)methyl]piperidine], the figure is 0.6 nM.
`N#Cc1ccc(COc2cc(C3=CCN(Cc4nc5cc(-c6noc(=O)[nH]6)cnc5n4C[C@@H]4CCO4)CC3)ccc2F)c(F)c1` [Compound 295a, 3-fluoro-4-[(2-fluoro-5-{1-[(3-{[(2S)-oxetan-2-yl]methyl}-6-(5-oxo-4,5-dihydro-1,2,4-oxadiazol-3-yl)-3H-imidazo[4,5-b]pyridin-2-yl)methyl]-1,2,3,6-tetrahydropyridin-4-yl}phenoxy)methyl]benzonitrile] came in with an EC50 of 2.6 nM.
As for `O=C(O)c1ccc2c(c1)nc(CN1CC=C(c3cccc(OCc4ccc(Cl)cc4F)n3)CC1)n2C[C@@H]1CCO1` [Compound 111a, (S)-2-((6-((4-chloro-2-fluorobenzyl)oxy)-3′,6′-dihydro-[2,4′-bipyridin]-1′(2′H)-yl)methyl)-1-(oxetan-2-ylmethyl)-1H-benzo[d]imidazole-5-carboxylic acid], the figure is 1.09 nM; as for `Fc1cc(Cl)ccc1COc1nc(C2CCN(Cc3nc4cc(-c5nnc(C(F)(F)F)[nH]5)cnc4n3C[C@@H]3CCO3)CC2)ncc1F` [Compound 504a, 4-[(4-chloro-2-fluorophenyl)methoxy]-5-fluoro-2-{1-[(3-{[(2S)-oxetan-2-yl]methyl}-6-[5-(trifluoromethyl)-4H-1,2,4-triazol-3-yl]-3H-imidazo[4,5-b]pyridin-2-yl)methyl]piperidin-4-yl}pyrimidine], 0.092 nM; as for `CO[C@H](C)Cn1c(CN2CCC(c3cccc4c3OC(C)(c3ccc(Cl)cn3)O4)CC2)nc2cc(-c3noc(=O)[nH]3)ncc21` (stereo partly drawn) [Compound 427a, 3-[2-({4-[2-(5-chloropyridin-2-yl)-2-methyl-2H-1,3-benzodioxol-4-yl]piperidin-1-yl}methyl)-3-[(2R)-2-methoxypropyl]-3H-imidazo[4,5-c]pyridin-6-yl]-4,5-dihydro-1,2,4-oxadiazol-5-one], 0.76 nM.
`Fc1cc(Cl)ccc1COc1nccc(C2CCN(Cc3nc4cc(-c5nnc(C(F)(F)F)[nH]5)ncc4n3C[C@@H]3CCO3)CC2)n1` [Compound 505a, 2-[(4-chloro-2-fluorophenyl)methoxy]-4-{1-[(3-{[(2S)-oxetan-2-yl]methyl}-6-[5-(trifluoromethyl)-4H-1,2,4-triazol-3-yl]-3H-imidazo[4,5-c]pyridin-2-yl)methyl]piperidin-4-yl}pyrimidine]: the EC50 was found to be 0.045 nM.
On to `CC1(c2ccc(Cl)cc2F)Oc2cccc(C3CCN(Cc4nc5cc(NC(=O)c6cccnc6)ccc5n4C[C@@H]4CCO4)CC3)c2O1` (stereo partly drawn) [Compound 235a, N-(2-((4-(2-(4-chloro-2-fluorophenyl)-2-methylbenzo[d][1,3]dioxol-4-yl)piperidin-1-yl)methyl)-1-(((S)-oxetan-2-yl)methyl)-1H-benzo[d]imidazol-5-yl)nicotinamide], for which the EC50 amounted to 0.062 nM.
As for `O=C(Nc1ccc2c(c1)nc(CN1CCC(c3cccc(OCc4ccc(Cl)cc4F)n3)CC1)n2C[C@@H]1CCO1)C1CCO1` (stereo partly drawn) [Compound 129a, N-{2-[(4-{6-[(4-chloro-2-fluorophenyl)methoxy]pyridin-2-yl}piperidin-1-yl)methyl]-1-{[(2S)-oxetan-2-yl]methyl}-1H-1,3-benzodiazol-5-yl}oxetane-2-carboxamide], the figure is 0.56 nM.

The term EC50 denotes the concentration needed to bring the measured effect to its halfway point. Read a high EC50 as weaker potency.
